Results from the supplement of paper PMC9663587.

Tests used:
[1] = compound: C=CC(=O)Nc1ccc(C(=O)Nc2[nH]nc3c2CN(C(=O)N[C@H](CN(C)C)c2ccccc2)C3(C)C)cc1 [YKL-5-124]; test: increase in dead-cell fraction, 72 h; higher = more death;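 also: breast cancer cell lines in 384-well plates, stained with Hoechst plus LIVE/DEAD far red dye and imaged, cells above an LDR intensity threshold counted dead, Hoechst-negative corpses included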
[2] = compound: CC(=O)c1c(C)c2cnc(Nc3ccc(N4CCN(CCOCCOCCOCCNC(=O)COc5cccc6c5C(=O)N(C5CCC(=O)NC5=O)C6=O)CC4)cn3)nc2n(C2CCCC2)c1=O [BSJ-03-123]; test: as above
[3] = compound: CC(=O)c1c(C)c2cnc(Nc3ccc(N4CCNCC4)cn3)nc2n(C2CCCC2)c1=O; test: as above
[4] = compound: CCN1CCN(Cc2ccc(Nc3ncc(F)c(-c4cc(F)c5nc(C)n(C(C)C)c5c4)n3)nc2)CC1; test: as above
[5] = compound: T1, CCOc1cc2ncc(C#N)c(Nc3ccc(OCc4ccccn4)c(Cl)c3)c2cc1NC(=O)/C=C/CN(C)C [Neratinib/HKI272]; test: as above
[6] = compound: CCc1cnn2c(NCc3ccc[n+]([O-])c3)cc(N3CCCC[C@H]3CCO)nc12; test: as above
[7] = compound: CN(C)C(=O)c1cc2cnc(Nc3ccc(N4CCNCC4)cn3)nc2n1C1CCCC1 [LEE011/Ribociclib]; test: as above
[8] = compound: CN(C)C/C=C/C(=O)Nc1ccc(C(=O)N2CCC[C@@H](Nc3ncc(Cl)c(-c4c[nH]c5ccccc45)n3)C2)cc1 [THZ531]; test: as above
[9] = compound: CN(C)C/C=C/C(=O)Nc1ccc(C(=O)Nc2cccc(Nc3ncc(Cl)c(-c4c[nH]c5ccccc45)n3)c2)cc1 [THZ1]; test: as above
[10] = compound: T2, CN1CC[C@H](c2c(O)cc(O)c3c(=O)cc(-c4ccccc4Cl)oc23)[C@H](O)C1 [Flavopiridol]; test: as above
[11] = compound: T1, Neratinib/HKI272; test: GR value, 72 h; higher = faster growth (1 = untreated, <0 = killing);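 also: breast cancer and non-malignant breast epithelial lines, nine half-log doses, viable cells counted by Hoechst and LIVE/DEAD dye imaging versus time-zero plates and DMSO controls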
[12] = compound: T2, Flavopiridol; test: as above

Cell Line: SKBR3
- increase in dead-cell fraction ([1]; 0.001 µM): 0.0064
- increase in dead-cell fraction ([1]; 0.003162 µM): 0.0231
- increase in dead-cell fraction ([1]; 0.01 µM): 0.0496
- increase in dead-cell fraction ([1]; 0.03162 µM): 0.0434
- increase in dead-cell fraction ([1]; 0.1 µM): 0.0537
- increase in dead-cell fraction ([1]; 0.3162 µM): 0.0626
- increase in dead-cell fraction ([1]; 1 µM): 0.0336
- increase in dead-cell fraction ([1]; 3.162 µM): 0.0844
- increase in dead-cell fraction ([1]; 10 µM): 0.316
- increase in dead-cell fraction ([2]; 0.001 µM): -0.001
- increase in dead-cell fraction ([2]; 0.003162 µM): 0.0008
- increase in dead-cell fraction ([2]; 0.01 µM): 0.0041
- increase in dead-cell fraction ([2]; 0.03162 µM): -0.0049
- increase in dead-cell fraction ([2]; 0.1 µM): 0.0076
- increase in dead-cell fraction ([2]; 0.3162 µM): -0.0004
- increase in dead-cell fraction ([2]; 1 µM): 0.0088
- increase in dead-cell fraction ([2]; 3.162 µM): 0.0136
- increase in dead-cell fraction ([2]; 10 µM): 0.15
- increase in dead-cell fraction ([3]; 0.0003162 µM): -0.0013
- increase in dead-cell fraction ([3]; 0.001 µM): 0.0036
- increase in dead-cell fraction ([3]; 0.003162 µM): 0.0075
- increase in dead-cell fraction ([3]; 0.01 µM): 0.015
- increase in dead-cell fraction ([3]; 0.03162 µM): 0.0198
- increase in dead-cell fraction ([3]; 0.1 µM): 0.0318
- increase in dead-cell fraction ([3]; 0.3162 µM): 0.0437
- increase in dead-cell fraction ([3]; 1 µM): 0.0364
- increase in dead-cell fraction ([3]; 3.162 µM): 0.0469
- increase in dead-cell fraction ([4]; 0.001 µM): 0.0059
- increase in dead-cell fraction ([4]; 0.003162 µM): 0.003
- increase in dead-cell fraction ([4]; 0.01 µM): 0.0233
- increase in dead-cell fraction ([4]; 0.03162 µM): 0.0346
- increase in dead-cell fraction ([4]; 0.1 µM): 0.0399
- increase in dead-cell fraction ([4]; 0.3162 µM): 0.0362
- increase in dead-cell fraction ([4]; 1 µM): 0.0582
- increase in dead-cell fraction ([4]; 3.162 µM): 0.0358
- increase in dead-cell fraction ([4]; 10 µM): 0.0879
- increase in dead-cell fraction ([5]; 0.0003162 µM): 0.0178
- increase in dead-cell fraction ([5]; 0.001 µM): 0.0381
- increase in dead-cell fraction ([5]; 0.003162 µM): 0.111
- increase in dead-cell fraction ([5]; 0.01 µM): 0.156
- increase in dead-cell fraction ([5]; 0.03162 µM): 0.222
- increase in dead-cell fraction ([5]; 0.1 µM): 0.24
- increase in dead-cell fraction ([5]; 0.3162 µM): 0.303
- increase in dead-cell fraction ([5]; 1 µM): 0.362
- increase in dead-cell fraction ([5]; 3.162 µM): 0.364
- increase in dead-cell fraction ([6]; 0.0001 µM): 0.0102
- increase in dead-cell fraction ([6]; 0.0003162 µM): 0.0115
- increase in dead-cell fraction ([6]; 0.001 µM): 0.0049
- increase in dead-cell fraction ([6]; 0.003162 µM): 0.011
- increase in dead-cell fraction ([6]; 0.01 µM): 0.303
- increase in dead-cell fraction ([6]; 0.03162 µM): 0.574
- increase in dead-cell fraction ([6]; 0.1 µM): 0.595
- increase in dead-cell fraction ([6]; 0.3162 µM): 0.612
- increase in dead-cell fraction ([6]; 1 µM): 0.583
- increase in dead-cell fraction ([7]; 0.001 µM): -0.0002
- increase in dead-cell fraction ([7]; 0.003162 µM): -0.0049
- increase in dead-cell fraction ([7]; 0.01 µM): 0.0112
- increase in dead-cell fraction ([7]; 0.03162 µM): 0.0071
- increase in dead-cell fraction ([7]; 0.1 µM): 0.0105
- increase in dead-cell fraction ([7]; 0.3162 µM): 0.0092
- increase in dead-cell fraction ([7]; 1 µM): 0.0206
- increase in dead-cell fraction ([7]; 3.162 µM): 0.0182
- increase in dead-cell fraction ([7]; 10 µM): 0.0119
- increase in dead-cell fraction ([8]; 0.0001 µM): 0.0012
- increase in dead-cell fraction ([8]; 0.0003162 µM): 0.0021
- increase in dead-cell fraction ([8]; 0.001 µM): 0.0015
- increase in dead-cell fraction ([8]; 0.003162 µM): -0.0089
- increase in dead-cell fraction ([8]; 0.01 µM): -0.0005
- increase in dead-cell fraction ([8]; 0.03162 µM): 0.053
- increase in dead-cell fraction ([8]; 0.1 µM): 0.155
- increase in dead-cell fraction ([8]; 0.3162 µM): 0.175
- increase in dead-cell fraction ([8]; 1 µM): 0.338
- increase in dead-cell fraction ([9]; 0.0001 µM): -0.0092
- increase in dead-cell fraction ([9]; 0.0003162 µM): 0.0042
- increase in dead-cell fraction ([9]; 0.001 µM): 0.0058
- increase in dead-cell fraction ([9]; 0.003162 µM): -0.0046
- increase in dead-cell fraction ([9]; 0.01 µM): -0.0004
- increase in dead-cell fraction ([9]; 0.03162 µM): 0.0505
- increase in dead-cell fraction ([9]; 0.1 µM): 0.237
- increase in dead-cell fraction ([9]; 0.3162 µM): 0.33
- increase in dead-cell fraction ([9]; 1 µM): 0.491
- increase in dead-cell fraction ([10]; 0.0001 µM): -0.0025
- increase in dead-cell fraction ([10]; 0.0003162 µM): -0.0004
- increase in dead-cell fraction ([10]; 0.001 µM): 0.0053
- increase in dead-cell fraction ([10]; 0.003162 µM): -0.001
- increase in dead-cell fraction ([10]; 0.01 µM): -0.0038
- increase in dead-cell fraction ([10]; 0.03162 µM): -0.0082
- increase in dead-cell fraction ([10]; 0.1 µM): 0.0051
- increase in dead-cell fraction ([10]; 0.3162 µM): 0.0663
- increase in dead-cell fraction ([10]; 1 µM): 0.417
- GR value ([11]; 0.0003162 µM): 0.841 GR
- GR value ([11]; 0.001 µM): 0.631 GR
- GR value ([11]; 0.003162 µM): 0.264 GR
- GR value ([11]; 0.01 µM): 0.0804 GR
- GR value ([11]; 0.03162 µM): 0.0019 GR
- GR value ([11]; 0.1 µM): -0.0509 GR
- GR value ([11]; 0.3162 µM): -0.163 GR
- GR value ([11]; 1 µM): -0.252 GR
- GR value ([11]; 3.162 µM): -0.246 GR
- GR value ([12]; 0.0001 µM): 1.04 GR
- GR value ([12]; 0.0003162 µM): 0.989 GR
- GR value ([12]; 0.001 µM): 0.844 GR
- GR value ([12]; 0.003162 µM): 0.823 GR
- GR value ([12]; 0.01 µM): 0.823 GR
- GR value ([12]; 0.03162 µM): 0.9 GR
- GR value ([12]; 0.1 µM): 0.641 GR
- GR value ([12]; 0.3162 µM): -0.0615 GR
- GR value ([12]; 1 µM): -0.656 GR
